Reference: ChEMBL document CHEMBL1201862, “PubChem BioAssay data set” (2004)
The source made the active and inactive calls.

Tests used:
SN12K1 = assay: cells; assay type: functional; settings: Homo sapiens
P388 = assay: cells; assay type: functional; settings: Mus musculus
P388/ADR = assay: cells; assay type: functional; settings: Mus musculus
[1] = cytotoxicity in HEK-293T cells, dose response, cytotoxicity control for TCR NF-kB inhibitor project, luminescence, T-cell screen hits (AID 489026); assay type: functional, cell-based;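 further: cells exposed to compound about 14 hours before the viability readout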
Protein RecA = target: T1, Protein RecA (Mycobacterium tuberculosis, UniProt P9WHJ3); assay: Fluorescence Cell-Free Homogeneous Dose Retest to Identify Inhibitors of RecA-Intein Splicing Activity. [Related pubchem assays (depositor defined):AID2097, AID2223, AID489010, AID492950]; assay type: functional
T1 sequence (P9WHJ3 whole entry): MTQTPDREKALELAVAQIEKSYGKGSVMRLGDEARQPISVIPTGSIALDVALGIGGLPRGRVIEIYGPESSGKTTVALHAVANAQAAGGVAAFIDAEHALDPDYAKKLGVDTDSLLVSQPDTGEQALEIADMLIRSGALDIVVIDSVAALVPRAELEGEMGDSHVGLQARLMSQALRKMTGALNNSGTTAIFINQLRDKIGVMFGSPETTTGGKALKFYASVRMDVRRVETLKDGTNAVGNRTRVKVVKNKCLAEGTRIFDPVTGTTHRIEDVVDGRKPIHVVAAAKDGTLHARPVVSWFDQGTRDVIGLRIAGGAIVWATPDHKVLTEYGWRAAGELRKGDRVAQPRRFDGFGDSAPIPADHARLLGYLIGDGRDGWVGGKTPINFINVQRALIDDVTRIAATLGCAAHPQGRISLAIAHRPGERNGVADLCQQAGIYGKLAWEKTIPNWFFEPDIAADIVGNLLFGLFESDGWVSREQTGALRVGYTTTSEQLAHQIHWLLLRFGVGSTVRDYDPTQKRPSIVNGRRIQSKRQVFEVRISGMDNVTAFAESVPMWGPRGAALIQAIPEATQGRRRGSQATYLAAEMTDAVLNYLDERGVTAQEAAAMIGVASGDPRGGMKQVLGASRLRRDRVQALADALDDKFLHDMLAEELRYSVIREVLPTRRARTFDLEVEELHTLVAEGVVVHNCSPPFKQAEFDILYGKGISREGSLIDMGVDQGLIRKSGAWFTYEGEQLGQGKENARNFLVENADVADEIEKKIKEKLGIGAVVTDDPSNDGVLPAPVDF

[2] = target: T2, Sentrin-specific protease 8 (Homo sapiens, UniProt Q96LD8); assay type: functional
T2 sequence (Q96LD8 whole entry): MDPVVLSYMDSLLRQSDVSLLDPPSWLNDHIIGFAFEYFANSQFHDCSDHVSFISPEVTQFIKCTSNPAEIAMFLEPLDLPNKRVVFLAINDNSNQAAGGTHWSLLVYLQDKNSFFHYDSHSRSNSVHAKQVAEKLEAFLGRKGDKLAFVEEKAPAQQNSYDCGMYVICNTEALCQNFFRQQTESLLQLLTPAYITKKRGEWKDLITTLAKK

[3] = target: T2, Sentrin-specific protease 8; assay type: functional; remark: listed apart in the source
[4] = target: T3, Replicative DNA helicase DnaB (Mycobacterium tuberculosis, UniProt P9WMR3); assay: DnaB intein splicing inhibitors, dose response, biochemical, cell-free fluorescence (AID 449749); assay type: functional
T3 sequence (P9WMR3 whole entry): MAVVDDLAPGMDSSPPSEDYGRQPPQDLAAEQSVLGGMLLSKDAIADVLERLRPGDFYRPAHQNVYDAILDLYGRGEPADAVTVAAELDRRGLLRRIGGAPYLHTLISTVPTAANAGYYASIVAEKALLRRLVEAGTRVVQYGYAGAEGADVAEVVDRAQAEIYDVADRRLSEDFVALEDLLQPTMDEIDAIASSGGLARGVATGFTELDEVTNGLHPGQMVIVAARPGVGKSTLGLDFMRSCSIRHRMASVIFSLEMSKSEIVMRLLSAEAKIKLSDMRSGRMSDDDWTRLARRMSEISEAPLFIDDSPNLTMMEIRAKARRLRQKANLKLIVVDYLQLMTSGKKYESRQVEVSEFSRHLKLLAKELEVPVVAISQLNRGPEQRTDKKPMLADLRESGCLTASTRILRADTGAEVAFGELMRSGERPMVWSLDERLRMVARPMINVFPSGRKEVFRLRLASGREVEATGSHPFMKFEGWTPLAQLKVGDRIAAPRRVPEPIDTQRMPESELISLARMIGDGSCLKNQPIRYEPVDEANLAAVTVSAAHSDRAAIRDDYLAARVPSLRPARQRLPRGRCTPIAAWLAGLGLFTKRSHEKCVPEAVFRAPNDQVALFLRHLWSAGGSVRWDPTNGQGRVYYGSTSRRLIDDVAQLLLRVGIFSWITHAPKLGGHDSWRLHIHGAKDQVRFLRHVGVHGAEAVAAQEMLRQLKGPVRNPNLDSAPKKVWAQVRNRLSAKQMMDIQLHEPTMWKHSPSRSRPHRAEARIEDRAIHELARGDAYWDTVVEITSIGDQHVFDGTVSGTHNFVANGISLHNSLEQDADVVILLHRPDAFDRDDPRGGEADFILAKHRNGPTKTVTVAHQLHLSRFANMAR

[5] = target: T4, DNA repair protein RAD52 homolog (Homo sapiens, UniProt P43351); assay type: functional, biochemical
T4 sequence (P43351 whole entry): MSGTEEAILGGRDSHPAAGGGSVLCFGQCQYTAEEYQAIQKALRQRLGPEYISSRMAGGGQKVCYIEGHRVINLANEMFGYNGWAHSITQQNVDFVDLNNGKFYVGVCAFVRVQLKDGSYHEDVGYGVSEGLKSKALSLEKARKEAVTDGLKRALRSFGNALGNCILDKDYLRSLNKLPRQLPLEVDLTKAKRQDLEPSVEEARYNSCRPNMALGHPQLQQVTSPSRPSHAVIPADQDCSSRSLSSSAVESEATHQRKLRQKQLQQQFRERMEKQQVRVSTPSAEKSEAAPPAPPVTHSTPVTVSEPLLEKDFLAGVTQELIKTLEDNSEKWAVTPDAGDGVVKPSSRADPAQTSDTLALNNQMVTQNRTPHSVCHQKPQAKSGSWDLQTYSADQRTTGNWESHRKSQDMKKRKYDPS

Large T antigen = Large T antigen (Simian virus 40, UniProt P03070); assay type: functional, Betapolyomavirus macacae;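 further: Confirmatory-stage PubChem screen for compounds that inhibit SV40 T antigen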
Cytochrome P450 3A4 = Cytochrome P450 3A4 (Homo sapiens, UniProt P08684);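 further: CYP3A4 tested as one member of a cytochrome P450 panel screen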
Cytochrome P450 2C19 = Cytochrome P450 2C19 (Homo sapiens, UniProt P33261); assay: Cytochrome panel assay with activity outcomes. Panel member name: p450-cyp2c19 Compounds with AC50 equal or less than 10 uM are considered active; assay type: functional; settings: read-out: AC50
Cytochrome P450 2C9 = Cytochrome P450 2C9 (Homo sapiens, UniProt P11712)
[6] = target: Dual specificity tyrosine-phosphorylation-regulated kinase 1A (Rattus norvegicus, UniProt Q63470); assay type: biochemical, Homo sapiens
cells = assay type: functional, cell-based
BJ [7] = assay: cytotoxicity toward BJ-TERT-LT-ST fibroblasts, dose response, cell-based, RAS-independent, luminescence (AID 1935); assay type: functional; settings: Homo sapiens;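 further: BJ fibroblasts immortalized with TERT plus LT and ST oncogenes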
BJ [8] = assay: cytotoxicity toward BJ-TERT fibroblasts, dose response, cell-based, RAS-independent, luminescence (AID 1933); assay type: functional; settings: Homo sapiens
[9] = cytotoxicity toward DRD oncogenic fibroblasts, dose response, cell-based, non-viral oncogenic, luminescence (AID 1934); assay type: functional; settings: Homo sapiens
BJ [10] = assay: cells; assay type: functional, cell-based; settings: Homo sapiens
[11] = target: Induced myeloid leukemia cell differentiation protein Mcl-1 (Homo sapiens, UniProt Q07820); assay type: functional
Sequence of Induced myeloid leukemia cell differentiation protein Mcl-1 (Q07820 whole entry): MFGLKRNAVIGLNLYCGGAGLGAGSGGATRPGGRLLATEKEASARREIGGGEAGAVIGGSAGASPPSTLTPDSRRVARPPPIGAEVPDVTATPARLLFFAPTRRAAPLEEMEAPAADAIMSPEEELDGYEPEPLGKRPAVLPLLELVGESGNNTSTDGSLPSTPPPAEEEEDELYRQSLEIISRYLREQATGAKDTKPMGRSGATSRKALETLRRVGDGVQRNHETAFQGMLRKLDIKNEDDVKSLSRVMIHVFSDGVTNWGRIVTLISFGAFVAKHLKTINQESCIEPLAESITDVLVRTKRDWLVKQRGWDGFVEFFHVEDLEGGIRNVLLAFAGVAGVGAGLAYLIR

Sequence of Large T antigen (P03070 whole entry): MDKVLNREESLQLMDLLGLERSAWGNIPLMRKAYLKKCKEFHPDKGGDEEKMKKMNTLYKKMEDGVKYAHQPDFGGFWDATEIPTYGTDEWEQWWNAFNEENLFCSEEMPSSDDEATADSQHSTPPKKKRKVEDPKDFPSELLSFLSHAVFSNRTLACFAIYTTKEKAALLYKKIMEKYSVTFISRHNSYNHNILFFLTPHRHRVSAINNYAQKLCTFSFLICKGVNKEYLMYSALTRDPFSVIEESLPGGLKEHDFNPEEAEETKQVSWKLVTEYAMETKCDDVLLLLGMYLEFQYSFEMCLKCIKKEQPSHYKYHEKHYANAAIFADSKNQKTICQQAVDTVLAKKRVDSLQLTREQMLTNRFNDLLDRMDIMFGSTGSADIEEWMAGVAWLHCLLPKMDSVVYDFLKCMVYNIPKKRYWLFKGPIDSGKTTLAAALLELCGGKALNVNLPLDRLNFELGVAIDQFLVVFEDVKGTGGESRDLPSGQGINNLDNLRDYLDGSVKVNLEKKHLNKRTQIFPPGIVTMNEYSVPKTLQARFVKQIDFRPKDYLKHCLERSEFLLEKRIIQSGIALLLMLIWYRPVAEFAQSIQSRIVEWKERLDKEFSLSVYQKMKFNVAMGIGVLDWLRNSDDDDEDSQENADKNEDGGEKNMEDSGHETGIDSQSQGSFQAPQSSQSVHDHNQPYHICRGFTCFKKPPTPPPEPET
Sequence of Cytochrome P450 2C19 (P33261 whole entry): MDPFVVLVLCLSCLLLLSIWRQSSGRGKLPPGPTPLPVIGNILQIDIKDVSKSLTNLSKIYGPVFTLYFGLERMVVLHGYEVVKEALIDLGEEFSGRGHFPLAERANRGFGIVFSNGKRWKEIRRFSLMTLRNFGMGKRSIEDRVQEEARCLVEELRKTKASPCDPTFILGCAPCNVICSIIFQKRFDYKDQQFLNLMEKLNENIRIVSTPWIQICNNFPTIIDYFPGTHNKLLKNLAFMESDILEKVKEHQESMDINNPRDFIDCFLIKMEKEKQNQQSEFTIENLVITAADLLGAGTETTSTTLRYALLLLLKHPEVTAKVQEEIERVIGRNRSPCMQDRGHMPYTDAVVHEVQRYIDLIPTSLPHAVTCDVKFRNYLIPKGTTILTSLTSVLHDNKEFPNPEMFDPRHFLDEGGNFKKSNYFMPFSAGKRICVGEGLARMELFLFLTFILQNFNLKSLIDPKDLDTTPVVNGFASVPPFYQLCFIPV
Sequence of Cytochrome P450 3A4 (P08684 whole entry): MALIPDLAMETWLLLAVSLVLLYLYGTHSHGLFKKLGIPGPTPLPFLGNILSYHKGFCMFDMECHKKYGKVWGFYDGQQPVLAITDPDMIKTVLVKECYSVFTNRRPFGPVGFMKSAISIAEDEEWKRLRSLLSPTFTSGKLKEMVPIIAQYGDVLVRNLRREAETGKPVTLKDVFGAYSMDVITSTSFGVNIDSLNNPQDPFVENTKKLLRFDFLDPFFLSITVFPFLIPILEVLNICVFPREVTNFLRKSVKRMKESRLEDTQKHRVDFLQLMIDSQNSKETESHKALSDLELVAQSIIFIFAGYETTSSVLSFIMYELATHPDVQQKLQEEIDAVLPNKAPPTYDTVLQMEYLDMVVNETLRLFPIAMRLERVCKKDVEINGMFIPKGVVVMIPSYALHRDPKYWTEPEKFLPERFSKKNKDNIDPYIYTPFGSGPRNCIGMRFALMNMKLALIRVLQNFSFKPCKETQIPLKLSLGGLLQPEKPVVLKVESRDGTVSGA
Sequence of Cytochrome P450 2C9 (P11712 whole entry): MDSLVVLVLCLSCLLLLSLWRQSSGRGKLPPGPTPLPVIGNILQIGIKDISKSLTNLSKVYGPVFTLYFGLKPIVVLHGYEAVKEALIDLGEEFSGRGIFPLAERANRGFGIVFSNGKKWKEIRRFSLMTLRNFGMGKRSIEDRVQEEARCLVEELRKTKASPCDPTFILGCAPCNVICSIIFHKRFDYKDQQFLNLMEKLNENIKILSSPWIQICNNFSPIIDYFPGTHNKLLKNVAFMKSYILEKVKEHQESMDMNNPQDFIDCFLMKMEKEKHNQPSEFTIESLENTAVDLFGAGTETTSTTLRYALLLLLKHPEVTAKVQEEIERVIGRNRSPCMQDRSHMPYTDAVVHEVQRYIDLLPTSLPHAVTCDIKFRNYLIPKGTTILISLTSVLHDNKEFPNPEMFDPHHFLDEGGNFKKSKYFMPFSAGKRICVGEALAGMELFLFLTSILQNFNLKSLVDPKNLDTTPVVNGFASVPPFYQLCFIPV

CCCCC1=C(Br)C(=C(Br)Br)OC1=O
GI50 (SN12K1): 1.96 µM (inactive) | GI50 (P388): 0.505 µM (active) | GI50 (P388/ADR): 0.443 µM (active)

Cc1ccc(/C=N/NC(=O)c2c(C)nc3ccc(Br)cn23)cc1
IC50 [1]: > 80 µM (inactive)

CCCCC(NC(=O)CC)C(=O)O (stereo not given)
GI50 (SN12K1): > 100 µM (inactive) | GI50 (P388): > 100 µM (inactive) | GI50 (P388/ADR): > 100 µM (inactive)

COc1cccc(N/C([S-])=C(/C(=O)c2ccc(OC(F)F)cc2)[n+]2ccccc2)c1
EC50 (Protein RecA): 8.62 µM (active) | IC50 [2]: 3.93 µM (active) | IC50 [3]: 6 µM (active) | AC50 [4]: 23.9 µM (active)

CN/C(=C/[N+](=O)[O-])NCCSCc1ccc(CN(C)C)o1
AC50 [5]: 18 µM (active)

O=C1NC(=S)N(C2CC2)C(=O)/C1=C/NNc1ccccc1
IC50 (Large T antigen): 8.87 µM (active)

Cc1nc(NC(N)=Nc2ccccc2)nc2ccccc12
AC50 (Cytochrome P450 3A4): 39.8 µM (inconclusive) | AC50 (Cytochrome P450 2C19): 39.8 µM (inconclusive) | AC50 (Cytochrome P450 2C9): inconclusive

O=C1NC(c2cccc3ccccc23)Nc2ccc(O)cc21 (stereo not given)
GI50 (SN12K1): 36.7 µM (inactive) | GI50 (P388): 19 µM (inactive) | GI50 (P388/ADR): 24.8 µM (inactive)

COc1ccc(-c2csc(N=C(N)N)n2)cc1
AC50 [6]: 0.541 µM (active)

Cc1ccccc1NS(=O)(=O)c1ccc(N2CCCC2=O)cc1
IC50 [1]: > 80 µM (inactive)

CC(NC(=O)C12CC3CC(CC(O)(C3)C1)C2)c1ccc(Cl)cc1Cl (stereo not given)
EC50 (cells): > 350 µM (not active)

Cc1nc2c(ccc3nsnc32)[nH]1
AC50 [6]: 5.91 µM (active)

COc1cccc2c1C(=O)c1c(O)c3c(c(O)c1C2=O)C[C@@](O)(C(C)=O)C[C@@H]3OC1CC(N(Cc2ccccc2)Cc2ccccc2)C(O)C(C)O1 (stereo not given in full)
GI50 (SN12K1): 2.92 µM (inactive) | GI50 (P388): 0.675 µM (active) | GI50 (P388/ADR): 1.57 µM (inactive)

CC(C(=O)c1ccc(-c2ccccc2)cc1)[n+]1cccc(NC(=O)c2ccccc2)c1 (stereo not given)
AC50 [5]: 19.1 µM (active)

Cc1c2cc[n+](C)cc2c(C)c2c1[nH]c1ccc(O)cc12 [ELLIPTINIUM ACETATE]
GI50 (SN12K1): 2.98 µM (inactive) | GI50 (P388): 0.131 µM (active) | GI50 (P388/ADR): 1.92 µM (inactive)

Cc1nc(C)c(-c2csc(Nc3ccc(N)cc3)n2)s1
IC50 (Large T antigen): 11.5 µM (active)

COc1ccccc1/C=C1\CCC(CN(C)C)C1=O (stereo not given)
GI50 (SN12K1): 2.05 µM (inactive) | GI50 (P388): 0.608 µM (active) | GI50 (P388/ADR): 0.568 µM (active)

CCOc1cc(CNc2ccc(N3CCN(C(C)=O)CC3)cc2)cc(Br)c1OC
IC50 (Large T antigen): 8.75 µM (active)

COc1ccc(Cl)cc1NC(=O)CN(C)CC(=O)Nc1ccccc1N1CCOCC1
EC50 (BJ [7]): 30.7 µM (active) | EC50 (BJ [8]): 3.04 µM (active) | EC50 [9]: 2.55 µM (active) | IC50 [1]: 70.8 µM (inactive) | EC50 (BJ [10]): 37.1 µM (active)

OC(CN1CCNCC1)Cn1c2ccccc2c2ccccc21 (stereo not given)
AC50 [5]: 20.7 µM (active)

COC(=O)c1ccc(C)cc1C1CN=NC12Cc1cc(C)ccc1C2=O (stereo not given)
IC50 [2]: 13.9 µM (active) | IC50 [3]: 20.9 µM (active)

C[C@H]1C/C=C/[C@H]2[C@@H]3O[C@]3(C)[C@@H](C)[C@H]3[C@H](Cc4ccccc4)NC(=O)[C@]32OC(=O)O/C=C/[C@@](C)(O)C1=O [CYTOCHALASIN E]
GI50 (SN12K1): < 0.01 µM (active) | GI50 (P388): 0.0166 µM (active)

CCOc1cc(/C=N/Nc2nc(-c3cccs3)c(NC(C)=O)s2)ccc1O
IC50 (Large T antigen): 30.5 µM (active) | IC50 [11]: 3.51 µM (active)

C#CCn1c(=O)c(C#N)c(O)c2cc3ccccc3nc21
GI50 (SN12K1): > 100 µM (inactive) | GI50 (P388): > 100 µM (inactive) | GI50 (P388/ADR): > 100 µM (inactive)

COC(=O)C1OC(Oc2cc(O)c3c(=O)cc(-c4ccc(O)cc4)oc3c2)C(O)C(O)C1O (stereo not given)
GI50 (SN12K1): > 100 µM (inactive) | GI50 (P388/ADR): > 35.5 µM (inactive)

COc1ccc(NC(=O)/C(C#N)=C\c2ccc(-c3cccc(C(=O)O)c3C)o2)cc1
AC50 [6]: 1.7 µM (active)

O=S(=O)(O)c1cccc(N=Nc2c(O)ccc3ccccc23)c1
AC50 [6]: 5.88 µM (active)

CN(C)CCNC(=O)c1cccc(-c2cnc3c(NC=O)cc(/C=C/c4ccccc4)cn23)c1
AC50 [5]: 2.21 µM (active)
